In PubChem BioAssay AID2060884 (Molecular Pharmacology Branch, DTP, NCI, 2025):

Test system: NCI-H929 complex spheroids, viability % test/control
Assay: Anticancer human tumor NCI-H929 cell line growth inhibition [RAS];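 further: compound exposure lasted seven days before viability was read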;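 on viability, T/C: 100% = DMSO vehicle control viability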
Conditions: for IC50: curve of first compound; for viability, T/C: stronger effect = lower value
Procedure, shortened: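 Agents were tested in combination matrices in half-log decrements from a top concentration at or near clinical Cmax (10 microM if undetermined). Targets were multi-cell spheroids of tumour lines plus HUVEC and MSC stromal cells.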

[1] = second compound 0.0316 µM, first compound 0.0316 µM
[2] = second compound 0.0316 µM, first compound 0.1 µM
[3] = second compound 0.0316 µM, first compound 0.316 µM
[4] = second compound 0.0316 µM, first compound 1 µM
[5] = second compound 0.0316 µM, first compound 3.16 µM
[6] = second compound 0.0316 µM, first compound 10 µM
[7] = second compound 0.1 µM, first compound 0.0316 µM
[8] = second compound 0.1 µM, first compound 0.1 µM
[9] = second compound 0.1 µM, first compound 0.316 µM
[10] = second compound 0.1 µM, first compound 1 µM
[11] = second compound 0.1 µM, first compound 3.16 µM
[12] = second compound 0.1 µM, first compound 10 µM
[13] = second compound 0.316 µM, first compound 0.0316 µM
[14] = second compound 0.316 µM, first compound 0.1 µM
[15] = second compound 0.316 µM, first compound 0.316 µM
[16] = second compound 0.316 µM, first compound 1 µM
[17] = second compound 0.316 µM, first compound 3.16 µM
[18] = second compound 0.316 µM, first compound 10 µM
[19] = second compound 1 µM, first compound 0.0316 µM
[20] = second compound 1 µM, first compound 0.1 µM
[21] = second compound 1 µM, first compound 0.316 µM
[22] = second compound 1 µM, first compound 1 µM
[23] = second compound 1 µM, first compound 3.16 µM
[24] = second compound 1 µM, first compound 10 µM
[25] = second compound 3.16 µM, first compound 0.0316 µM
[26] = second compound 3.16 µM, first compound 0.1 µM
[27] = second compound 3.16 µM, first compound 0.316 µM
[28] = second compound 3.16 µM, first compound 1 µM
[29] = second compound 3.16 µM, first compound 3.16 µM
[30] = second compound 3.16 µM, first compound 10 µM
[31] = second compound 10 µM, first compound 0.0316 µM
[32] = second compound 10 µM, first compound 0.1 µM
[33] = second compound 10 µM, first compound 0.316 µM
[34] = second compound 10 µM, first compound 1 µM
[35] = second compound 10 µM, first compound 3.16 µM
[36] = second compound 10 µM, first compound 10 µM

Structure (SMILES): Cc1nc(N2CCC3(CC2)COC(C)C3N)c(CO)nc1Sc1ccnc(N)c1Cl (centres undefined) + C#Cc1c(F)ccc2cc(O)cc(-c3ncc4c(N5CC6CCC(C5)N6)nc(OCC56CCCN5CC(F)C6)nc4c3F)c12
- IC50 (second compound 0.0316 µM): > 10 µM
- IC50 (second compound 0.1 µM): > 10 µM
- IC50 (second compound 0.316 µM): > 10 µM
- IC50 (second compound 1 µM): > 10 µM
- IC50 (second compound 3.16 µM): > 10 µM
- IC50 (second compound 10 µM): > 10 µM
- viability, T/C [1]: 101%
- viability, T/C [2]: 95.1%
- viability, T/C [3]: 98%
- viability, T/C [4]: 98.7%
- viability, T/C [5]: 98.4%
- viability, T/C [6]: 99.5%
- viability, T/C [7]: 97.3%
- viability, T/C [8]: 97.6%
- viability, T/C [9]: 95.3%
- viability, T/C [10]: 99%
- viability, T/C [11]: 99%
- viability, T/C [12]: 107%
- viability, T/C [13]: 96%
- viability, T/C [14]: 97.3%
- viability, T/C [15]: 99%
- viability, T/C [16]: 101%
- viability, T/C [17]: 101%
- viability, T/C [18]: 102%
- viability, T/C [19]: 93.4%
- viability, T/C [20]: 102%
- viability, T/C [21]: 102%
- viability, T/C [22]: 100%
- viability, T/C [23]: 103%
- viability, T/C [24]: 103%
- viability, T/C [25]: 103%
- viability, T/C [26]: 99.8%
- viability, T/C [27]: 99.5%
- viability, T/C [28]: 101%
- viability, T/C [29]: 102%
- viability, T/C [30]: 104%
- viability, T/C [31]: 99.9%
- viability, T/C [32]: 104%
- viability, T/C [33]: 106%
- viability, T/C [34]: 103%
- viability, T/C [35]: 103%
- viability, T/C [36]: 85.6%

Structure (SMILES): CC(Nc1ccc2c(c1)OCCn1cc(N3C(=O)OCC3C(F)F)nc1-2)C(N)=O (centres undefined) + C#Cc1c(F)ccc2cc(O)cc(-c3ncc4c(N5CC6CCC(C5)N6)nc(OCC56CCCN5CC(F)C6)nc4c3F)c12
- IC50 (second compound 0.0316 µM): > 10 µM
- IC50 (second compound 0.1 µM): > 10 µM
- IC50 (second compound 0.316 µM): > 10 µM
- IC50 (second compound 1 µM): > 10 µM
- IC50 (second compound 3.16 µM): 9.56 µM
- IC50 (second compound 10 µM): 4.91 µM
- viability, T/C [1]: 99.8%
- viability, T/C [2]: 102%
- viability, T/C [3]: 112%
- viability, T/C [4]: 110%
- viability, T/C [5]: 114%
- viability, T/C [6]: 66.2%
- viability, T/C [7]: 95%
- viability, T/C [8]: 102%
- viability, T/C [9]: 109%
- viability, T/C [10]: 114%
- viability, T/C [11]: 113%
- viability, T/C [12]: 73.7%
- viability, T/C [13]: 97.1%
- viability, T/C [14]: 102%
- viability, T/C [15]: 112%
- viability, T/C [16]: 115%
- viability, T/C [17]: 114%
- viability, T/C [18]: 70.3%
- viability, T/C [19]: 94.6%
- viability, T/C [20]: 101%
- viability, T/C [21]: 112%
- viability, T/C [22]: 115%
- viability, T/C [23]: 113%
- viability, T/C [24]: 62.6%
- viability, T/C [25]: 98.4%
- viability, T/C [26]: 102%
- viability, T/C [27]: 110%
- viability, T/C [28]: 114%
- viability, T/C [29]: 110%
- viability, T/C [30]: 47.7%
- viability, T/C [31]: 96.6%
- viability, T/C [32]: 100%
- viability, T/C [33]: 98.6%
- viability, T/C [34]: 94.4%
- viability, T/C [35]: 70.2%
- viability, T/C [36]: 17.4%
